# Where two headings read alike, the source gives them in different places.
# Key:
# Assay in all cases: KinomeScan kinase panel, single concentration 10 µM
# Assay type in all cases: binding
# [1] = biological target: T1, KinomeScan kinase panel (Homo sapiens, UniProt O15264); details: p38-delta, 10 µM; read-out: score (%)
# T1 construct: purchased DiscoveRx (KinomeScan)
# T1 sequence (O15264 1-365): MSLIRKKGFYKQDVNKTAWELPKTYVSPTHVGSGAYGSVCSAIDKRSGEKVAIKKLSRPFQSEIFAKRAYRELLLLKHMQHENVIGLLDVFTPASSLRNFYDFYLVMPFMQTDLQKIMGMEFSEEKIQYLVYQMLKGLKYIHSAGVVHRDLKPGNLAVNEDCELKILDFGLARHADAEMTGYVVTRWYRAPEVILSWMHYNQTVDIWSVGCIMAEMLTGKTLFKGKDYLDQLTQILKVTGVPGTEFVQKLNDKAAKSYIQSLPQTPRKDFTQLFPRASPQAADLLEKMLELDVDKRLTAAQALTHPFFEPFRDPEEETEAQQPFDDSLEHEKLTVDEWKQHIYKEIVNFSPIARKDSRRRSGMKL
# [2] = biological target: T2, KinomeScan kinase panel (Homo sapiens, UniProt P07332); details: FES, 10 µM; read-out: score (%)
# T2 construct: purchased DiscoveRx (KinomeScan)
# [3] = biological target: T3, KinomeScan kinase panel (Homo sapiens, UniProt P0C1S8); details: kinase WEE2; 10 µM; read-out: score (%)
# T3 construct: purchased DiscoveRx (KinomeScan)
# [4] = biological target: T4, KinomeScan kinase panel (Homo sapiens, UniProt P33981); details: kinase TTK; 10 µM; read-out: score (%)
# T4 construct: purchased DiscoveRx (KinomeScan)
# T4 sequence (P33981 1-857): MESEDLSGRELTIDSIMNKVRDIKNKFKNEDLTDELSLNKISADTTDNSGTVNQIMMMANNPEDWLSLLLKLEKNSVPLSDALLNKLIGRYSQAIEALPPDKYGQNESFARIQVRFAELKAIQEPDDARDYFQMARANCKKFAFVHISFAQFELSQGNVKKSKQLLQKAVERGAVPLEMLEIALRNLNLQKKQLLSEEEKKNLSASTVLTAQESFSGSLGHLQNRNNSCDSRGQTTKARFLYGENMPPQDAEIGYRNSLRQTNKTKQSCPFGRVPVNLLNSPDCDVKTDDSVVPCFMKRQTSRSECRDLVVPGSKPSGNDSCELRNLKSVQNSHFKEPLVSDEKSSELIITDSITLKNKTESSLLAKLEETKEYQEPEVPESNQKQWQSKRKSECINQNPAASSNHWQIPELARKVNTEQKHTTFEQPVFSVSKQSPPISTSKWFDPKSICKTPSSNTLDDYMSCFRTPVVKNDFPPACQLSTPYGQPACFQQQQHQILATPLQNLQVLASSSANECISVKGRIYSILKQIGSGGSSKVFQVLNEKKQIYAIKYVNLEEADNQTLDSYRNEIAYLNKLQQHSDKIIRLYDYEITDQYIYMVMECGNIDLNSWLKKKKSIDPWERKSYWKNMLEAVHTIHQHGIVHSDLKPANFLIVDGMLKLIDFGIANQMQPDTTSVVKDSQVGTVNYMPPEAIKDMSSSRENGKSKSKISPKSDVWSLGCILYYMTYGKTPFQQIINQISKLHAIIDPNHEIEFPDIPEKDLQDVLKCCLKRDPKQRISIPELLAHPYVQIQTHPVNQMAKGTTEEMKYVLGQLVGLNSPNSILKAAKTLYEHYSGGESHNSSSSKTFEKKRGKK
# [5] = biological target: T5, KinomeScan kinase panel (Homo sapiens, UniProt P45983); details: JNK1, 10 µM
# T5 construct: purchased DiscoveRx (KinomeScan)
# [6] = biological target: T6, KinomeScan kinase panel (Homo sapiens, UniProt P51812); details: 10 µM, read-out: score (%)
# T6 construct: purchased DiscoveRx (KinomeScan)
# [7] = biological target: T7, KinomeScan kinase panel (Homo sapiens, UniProt Q02156); details: 10 µM, read-out: score (%)
# T7 construct: purchased DiscoveRx (KinomeScan)
# T7 sequence (Q02156 1-737): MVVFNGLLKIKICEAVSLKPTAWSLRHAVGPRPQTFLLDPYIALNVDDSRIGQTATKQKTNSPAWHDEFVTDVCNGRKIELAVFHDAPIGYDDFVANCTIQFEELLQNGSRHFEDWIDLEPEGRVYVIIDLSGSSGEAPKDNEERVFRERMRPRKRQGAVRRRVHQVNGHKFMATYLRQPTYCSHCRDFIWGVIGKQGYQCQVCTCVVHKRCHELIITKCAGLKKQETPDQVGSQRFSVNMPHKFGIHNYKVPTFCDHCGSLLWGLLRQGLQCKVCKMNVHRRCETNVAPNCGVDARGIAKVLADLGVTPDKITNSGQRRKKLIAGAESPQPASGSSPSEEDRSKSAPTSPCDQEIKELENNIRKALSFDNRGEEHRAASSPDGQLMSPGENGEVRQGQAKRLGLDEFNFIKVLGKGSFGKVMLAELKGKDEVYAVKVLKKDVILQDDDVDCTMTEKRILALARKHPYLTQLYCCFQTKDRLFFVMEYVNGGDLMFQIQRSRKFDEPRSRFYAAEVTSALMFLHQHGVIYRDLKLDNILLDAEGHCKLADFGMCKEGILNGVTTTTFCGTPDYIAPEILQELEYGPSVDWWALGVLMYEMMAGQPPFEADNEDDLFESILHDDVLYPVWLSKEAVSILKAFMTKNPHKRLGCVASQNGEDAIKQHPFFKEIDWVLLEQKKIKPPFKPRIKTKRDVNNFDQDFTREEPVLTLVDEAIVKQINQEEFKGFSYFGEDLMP
# [8] = biological target: T8, KinomeScan kinase panel (Homo sapiens, UniProt Q96GD4); details: AURKB, 10 µM; read-out: score (%)
# T8 construct: purchased DiscoveRx (KinomeScan)
# [9] = biological target: T9, KinomeScan kinase panel (Homo sapiens, UniProt Q9UKE5); details: 10 µM, read-out: score (%)
# T9 construct: purchased DiscoveRx (KinomeScan)
# [10] = biological target: T10, KinomeScan kinase panel (Homo sapiens, UniProt Q9UM73); details: ALK, 10 µM; read-out: score (%)
# T10 construct: purchased DiscoveRx (KinomeScan)
# T10 sequence (Q9UM73 19-1620): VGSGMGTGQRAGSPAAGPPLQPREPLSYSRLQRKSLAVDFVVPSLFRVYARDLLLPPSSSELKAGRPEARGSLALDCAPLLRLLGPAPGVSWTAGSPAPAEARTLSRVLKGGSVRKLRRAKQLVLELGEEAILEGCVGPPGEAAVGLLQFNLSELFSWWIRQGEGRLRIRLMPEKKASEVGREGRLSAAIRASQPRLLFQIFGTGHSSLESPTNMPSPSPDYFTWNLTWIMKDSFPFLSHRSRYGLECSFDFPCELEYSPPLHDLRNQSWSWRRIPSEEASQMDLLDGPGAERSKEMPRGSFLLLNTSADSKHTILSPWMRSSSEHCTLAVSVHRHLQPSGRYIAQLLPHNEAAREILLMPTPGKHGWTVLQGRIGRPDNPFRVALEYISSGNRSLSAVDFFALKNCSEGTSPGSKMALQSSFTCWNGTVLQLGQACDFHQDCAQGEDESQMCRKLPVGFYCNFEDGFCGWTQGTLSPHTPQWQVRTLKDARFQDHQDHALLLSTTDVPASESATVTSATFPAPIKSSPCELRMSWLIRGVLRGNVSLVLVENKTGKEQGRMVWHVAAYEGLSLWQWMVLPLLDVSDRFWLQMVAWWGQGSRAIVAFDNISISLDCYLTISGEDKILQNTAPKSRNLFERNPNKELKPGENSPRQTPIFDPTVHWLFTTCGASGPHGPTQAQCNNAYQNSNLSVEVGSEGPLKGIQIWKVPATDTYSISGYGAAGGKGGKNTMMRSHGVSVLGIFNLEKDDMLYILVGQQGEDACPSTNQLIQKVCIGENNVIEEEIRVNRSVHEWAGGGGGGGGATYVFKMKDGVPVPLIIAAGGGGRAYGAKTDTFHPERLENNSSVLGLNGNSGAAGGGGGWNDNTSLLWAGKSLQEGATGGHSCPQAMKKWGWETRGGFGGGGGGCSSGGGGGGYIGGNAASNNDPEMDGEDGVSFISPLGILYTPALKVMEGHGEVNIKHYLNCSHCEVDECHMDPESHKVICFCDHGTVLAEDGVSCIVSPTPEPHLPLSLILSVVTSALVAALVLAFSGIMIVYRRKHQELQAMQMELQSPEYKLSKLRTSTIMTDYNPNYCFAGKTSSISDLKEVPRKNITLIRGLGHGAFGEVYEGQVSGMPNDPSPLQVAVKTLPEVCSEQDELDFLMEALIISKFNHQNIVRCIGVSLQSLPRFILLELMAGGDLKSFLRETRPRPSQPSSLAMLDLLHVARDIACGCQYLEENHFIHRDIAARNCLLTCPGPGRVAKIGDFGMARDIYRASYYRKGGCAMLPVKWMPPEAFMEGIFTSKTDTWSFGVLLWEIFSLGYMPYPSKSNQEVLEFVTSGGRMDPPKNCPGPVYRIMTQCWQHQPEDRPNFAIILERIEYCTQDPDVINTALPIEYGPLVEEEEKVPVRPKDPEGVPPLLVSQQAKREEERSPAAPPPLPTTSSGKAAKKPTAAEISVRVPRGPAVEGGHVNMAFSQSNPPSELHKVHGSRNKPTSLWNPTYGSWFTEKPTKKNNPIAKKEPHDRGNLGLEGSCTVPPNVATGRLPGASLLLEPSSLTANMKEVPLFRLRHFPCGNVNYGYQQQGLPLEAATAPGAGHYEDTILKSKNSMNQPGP
# T3 sequence (P0C1S8 whole entry): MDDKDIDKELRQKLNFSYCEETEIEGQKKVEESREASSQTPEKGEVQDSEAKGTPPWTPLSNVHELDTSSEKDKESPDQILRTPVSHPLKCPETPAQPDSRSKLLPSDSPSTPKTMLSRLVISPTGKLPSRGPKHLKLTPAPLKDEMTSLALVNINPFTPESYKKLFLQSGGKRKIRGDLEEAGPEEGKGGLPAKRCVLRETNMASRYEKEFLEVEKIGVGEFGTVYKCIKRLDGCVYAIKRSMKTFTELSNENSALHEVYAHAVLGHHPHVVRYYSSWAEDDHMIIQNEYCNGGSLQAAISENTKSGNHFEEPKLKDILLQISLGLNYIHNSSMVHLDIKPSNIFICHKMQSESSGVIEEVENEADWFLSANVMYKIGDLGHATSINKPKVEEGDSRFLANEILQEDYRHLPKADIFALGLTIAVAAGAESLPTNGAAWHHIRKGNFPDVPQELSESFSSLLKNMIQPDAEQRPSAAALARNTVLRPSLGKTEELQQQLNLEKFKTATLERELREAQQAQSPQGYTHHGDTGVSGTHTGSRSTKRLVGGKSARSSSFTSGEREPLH
# T6 sequence (P51812 whole entry): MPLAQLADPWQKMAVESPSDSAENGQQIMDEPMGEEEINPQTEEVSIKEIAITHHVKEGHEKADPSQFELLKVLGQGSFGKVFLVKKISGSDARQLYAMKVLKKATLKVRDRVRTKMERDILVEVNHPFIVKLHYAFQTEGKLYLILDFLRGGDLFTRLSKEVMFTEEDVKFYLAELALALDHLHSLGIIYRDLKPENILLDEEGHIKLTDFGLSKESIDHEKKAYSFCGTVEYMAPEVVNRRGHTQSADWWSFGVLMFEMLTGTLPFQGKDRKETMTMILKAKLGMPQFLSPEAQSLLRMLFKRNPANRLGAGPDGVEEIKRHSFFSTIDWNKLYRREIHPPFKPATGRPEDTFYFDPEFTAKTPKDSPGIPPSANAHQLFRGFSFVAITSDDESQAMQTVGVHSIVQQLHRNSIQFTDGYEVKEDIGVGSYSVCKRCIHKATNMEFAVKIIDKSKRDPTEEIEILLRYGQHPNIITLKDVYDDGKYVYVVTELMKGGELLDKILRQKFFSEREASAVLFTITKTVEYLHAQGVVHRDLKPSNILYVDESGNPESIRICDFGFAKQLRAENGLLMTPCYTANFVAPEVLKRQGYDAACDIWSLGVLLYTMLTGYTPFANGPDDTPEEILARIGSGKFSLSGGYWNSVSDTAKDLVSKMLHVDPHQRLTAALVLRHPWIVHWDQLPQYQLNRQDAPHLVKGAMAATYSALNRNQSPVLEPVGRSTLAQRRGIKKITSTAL
# T5 sequence (P45983 whole entry): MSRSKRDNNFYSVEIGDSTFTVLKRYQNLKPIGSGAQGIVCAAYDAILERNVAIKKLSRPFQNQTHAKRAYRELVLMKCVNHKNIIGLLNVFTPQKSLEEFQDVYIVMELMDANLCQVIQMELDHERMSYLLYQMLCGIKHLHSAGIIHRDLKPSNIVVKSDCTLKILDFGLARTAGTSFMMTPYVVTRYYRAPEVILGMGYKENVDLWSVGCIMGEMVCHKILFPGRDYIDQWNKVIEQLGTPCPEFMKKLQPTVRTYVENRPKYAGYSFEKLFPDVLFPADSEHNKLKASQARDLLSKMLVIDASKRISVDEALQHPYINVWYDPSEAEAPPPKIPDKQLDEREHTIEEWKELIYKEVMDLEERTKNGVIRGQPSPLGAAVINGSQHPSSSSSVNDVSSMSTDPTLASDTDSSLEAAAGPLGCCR
# T2 sequence (P07332 whole entry): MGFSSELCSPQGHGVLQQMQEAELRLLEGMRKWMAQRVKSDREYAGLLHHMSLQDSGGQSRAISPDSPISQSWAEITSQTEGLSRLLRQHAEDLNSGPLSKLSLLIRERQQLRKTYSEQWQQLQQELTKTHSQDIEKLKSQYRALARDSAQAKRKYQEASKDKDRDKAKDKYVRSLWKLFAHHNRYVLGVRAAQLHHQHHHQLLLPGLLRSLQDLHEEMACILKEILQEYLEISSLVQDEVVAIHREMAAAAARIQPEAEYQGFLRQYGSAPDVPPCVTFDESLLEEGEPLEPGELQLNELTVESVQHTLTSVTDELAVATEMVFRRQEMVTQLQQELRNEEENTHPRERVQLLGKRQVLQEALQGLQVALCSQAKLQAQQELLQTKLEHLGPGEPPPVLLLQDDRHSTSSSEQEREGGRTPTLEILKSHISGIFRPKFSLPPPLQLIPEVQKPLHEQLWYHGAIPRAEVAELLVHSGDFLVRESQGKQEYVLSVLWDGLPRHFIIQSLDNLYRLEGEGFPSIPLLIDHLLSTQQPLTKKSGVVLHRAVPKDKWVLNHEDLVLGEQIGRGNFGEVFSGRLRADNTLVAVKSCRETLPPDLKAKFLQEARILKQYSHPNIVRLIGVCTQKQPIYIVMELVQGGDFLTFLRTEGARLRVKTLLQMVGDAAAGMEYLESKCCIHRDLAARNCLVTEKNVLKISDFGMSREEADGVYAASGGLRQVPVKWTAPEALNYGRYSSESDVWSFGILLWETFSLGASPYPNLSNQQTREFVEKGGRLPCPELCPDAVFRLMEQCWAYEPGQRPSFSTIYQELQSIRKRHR
# T8 sequence (Q96GD4 whole entry): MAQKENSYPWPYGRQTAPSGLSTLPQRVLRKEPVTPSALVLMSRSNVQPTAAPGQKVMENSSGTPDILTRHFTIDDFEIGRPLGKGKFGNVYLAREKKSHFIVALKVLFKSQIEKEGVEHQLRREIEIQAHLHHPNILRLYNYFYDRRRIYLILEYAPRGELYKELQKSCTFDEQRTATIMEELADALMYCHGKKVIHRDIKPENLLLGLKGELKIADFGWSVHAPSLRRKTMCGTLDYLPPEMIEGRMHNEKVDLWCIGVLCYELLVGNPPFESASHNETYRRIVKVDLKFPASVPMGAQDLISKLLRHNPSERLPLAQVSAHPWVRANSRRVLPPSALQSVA
remaining binding at 10 µM ([6]; RPS6KA3(Kin.Dom.1)) [%],remaining binding at 10 µM ([9]; TNIK) [%],Structure (SMILES),remaining binding at 10 µM [1] [%],remaining binding at 10 µM [2] [%],remaining binding at 10 µM [3] [%],remaining binding at 10 µM [4] [%],score (%) [5],remaining binding at 10 µM ([6]; kinase RPS6KA3(Kin.Dom.1-N-terminal)) [%],remaining binding at 10 µM ([7]; PRKCE) [%],remaining binding at 10 µM [8] [%],remaining binding at 10 µM ([9]; kinase TNIK) [%],remaining binding at 10 µM [10] [%],remaining binding at 10 µM ([6]; kinase RSK2(Kin.Dom.1-N-terminal)) [%],remaining binding at 10 µM ([7]; kinase PRKCE) [%]
,,CCN1CCN(Cc2ccc(NC(=O)c3ccc(C)c(NC(=O)c4cncc(-c5cccs5)c4)c3)cc2C(F)(F)F)CC1 [ALW-II-41-27],29,0.8,> 30,> 30,nb (Hits values higher than 30% were considered negative (no binding: nb)),> 30,5,> 30,11,> 30,,
> 30,13,"CCN1CCN(Cc2ccc(NC(=O)c3ccc(C)c(/C=C/c4cnc5[nH]ccc5c4Cl)c3)cc2C(F)(F)F)CC1 [HG-6-63-01, (E)-3-(2-(4-chloro-1H-pyrrolo[2,3-b]pyridin-5-yl)vinyl)-N-(4-((4-ethylpiperazin-1-yl)methyl)-3-(trifluoromethyl)phenyl)-4-methylbenzamide]",> 30,0.55,15,> 30,6.6%,,> 30,6.6,,> 30,,
,,CCN1CCN(Cc2ccc(NC(=O)c3ccc(C)c(C#Cc4cccnc4)c3)cc2C(F)(F)F)CC1 [XMD15-44],2.5,0.75,100,16,0.55%,,,24,1.8,23,16,54
